Measured values: paper doi:10.1101/2025.10.24.684335v1 (bioRxiv, 2025)

Assays:
Type in all cases: cell-based, human
[1] = tested on: AKT; test: AKT phosphorylation; details: normalized to GAPDH
[2] = tested on: ERK; test: ERK phosphorylation in hCMEC/D3 monolayers, Western blot; details: normalized to GAPDH
[3] = tested on: RAGE; test: RAGE expression in hCMEC/D3 membrane fraction, Western blot; details: normalized to calnexin
[4] = tested on: claudin-5; test: Claudin-5 immunocytochemistry in hCMEC/D3 monolayers, confocal microscopy; details: 10 nM butyrate 6 h, 1 μM Aβ42 for the last hour; AF647 immunofluorescence
[5] = 10 nM butyrate 6 h with 50 nM insulin for 5 min, p<0.05

CCCC(=O)O [butyrate, sodium butyrate]
AKT phosphorylation, fold increase vs insulin alone-treated group [1, 5]: 3 fold
ERK phosphorylation, fold increase vs insulin alone-treated group [2, 5]: ~1.3 fold
RAGE expression vs Aβ42 alone (reversal of Aβ42-induced increase) ([3]; butyrate 5 h then co-incubation with 1 μM Aβ42 for 1 h): not significant
Claudin-5 expression vs Aβ42 alone group [4]: increased

Aβ42: unlabeled amyloid beta 42 peptide supplied by Aapptec [reference compound]
RAGE expression, fold increase vs control ([3]; 1 μM Aβ42 for 1 h alone, p<0.05): 2.4 fold

insulin: insulin used at 50 nM to stimulate insulin signaling
AKT phosphorylation vs untreated group ([1]; 50 nM insulin 5 min alone): not statistically significant
ERK phosphorylation, fold increase vs untreated group ([2]; 50 nM insulin 5 min alone, p<0.001): 3 fold
